Legend:
Test in all cases: ScanMAX Kinase analysis panel (DiscoverX)
Type in all cases: binding
Details in all cases: read-out: adjusted percentage (% control)
[1] = biological target: T1, ABL1(T315I)-nonphosphorylated (Homo sapiens, UniProt P00519, T315I)
T1 construct: purchased DiscoverX
Procedure: (§1) The following experiment was performed in order to evaluate the inhibitory activity of the compound according to the present invention against more enzymes. Specifically, for Examples 1 and 3 selected among the Example compounds of the present invention, the enzyme (kinase) selectivity was set to be measured by commissioning DiscoverX, and an experiment was conducted using a ScanMAX™ Kinase analysis panel. In this case, the concentration of the drug treated with the enzyme was set to 1 μM in DMSO, the adjusted percentage (% control) was determined in the same manner as in the following Equation 1, and the results are shown in the following Table 3. (Example compound−Positive control)/(Negative control−Positive control)×100 [Equation 1]
(§2) In addition, the enzyme selectivity of the present invention was determined to be active against the corresponding enzyme when the adjusted percentage was <35% (that is, less than 35%).

DAPK3 = biological target: T2, DAPK3 (Homo sapiens, UniProt O43293)
T2 construct: purchased DiscoverX
Procedure: as §1, §2

FLT3(D835V) = biological target: T3, FLT3(D835V) (Homo sapiens, UniProt P36888, D835V)
T3 construct: purchased DiscoverX ScanMAX Kinase analysis panel
Procedure: as §1, §2

[2] = biological target: T4, JAK1(JH2domain-pseudokinase) (Homo sapiens, UniProt P23458)
T4 construct: JAK1(JH2domain-pseudokinase); purchased DiscoverX ScanMAX Kinase analysis panel
Procedure: as §1, §2

MEK5 = biological target: T5, MEK5 (Homo sapiens, UniProt Q13163)
T5 construct: purchased DiscoverX ScanMAX Kinase analysis panel
Procedure: as §1, §2

MAP3K2 = biological target: T6, MAP3K2 (Homo sapiens, UniProt Q9Y2U5)
T6 construct: purchased DiscoverX ScanMAX Kinase analysis panel
Procedure: as §1, §2

[3] = biological target: T7, JAK3(JH1domain-catalytic) (Homo sapiens, UniProt P52333)
T7 construct: JAK3 (JH1domain-catalytic); purchased DiscoverX ScanMAX Kinase analysis panel
Procedure: as §1, §2

GCN2(Kin.Dom.2, S808G) = biological target: T8, GCN2(Kin.Dom.2, S808G) (Homo sapiens, UniProt Q9P2K8, S808G)
T8 construct: GCN2(Kin.Dom.2,S808G); purchased DiscoverX ScanMAX Kinase analysis panel
Procedure: as §1, §2

RET(V804L) = biological target: T9, RET(V804L) (Homo sapiens, UniProt P07949, V804L)
T9 construct: purchased DiscoverX ScanMAX Kinase analysis panel
Procedure: as §1, §2

RET = biological target: T10, RET (Homo sapiens, UniProt P07949)
T10 construct: purchased DiscoverX ScanMAX Kinase analysis panel
Procedure: as §1, §2

YES = biological target: T11, YES (Homo sapiens, UniProt P07947)
T11 construct: purchased DiscoverX ScanMAX Kinase analysis panel
Procedure: as §1, §2

PLK4 = biological target: T12, PLK4 (Homo sapiens, UniProt O00444)
T12 construct: purchased DiscoverX ScanMAX Kinase analysis panel
Procedure: as §1, §2

DDR2 = biological target: T13, DDR2 (Homo sapiens, UniProt Q16832)
T13 construct: purchased DiscoverX
Procedure: as §1, §2

[4] = biological target: T14, ABL1(M351T)-phosphorylated (Homo sapiens, UniProt P00519, M351T)
T14 construct: purchased DiscoverX
Procedure: as §1, §2

YSK4 = biological target: T15, YSK4 (Homo sapiens, UniProt Q56UN5)
T15 construct: purchased DiscoverX ScanMAX Kinase analysis panel
Procedure: as §1, §2

FLT3(D835H) = biological target: T16, FLT3(D835H) (Homo sapiens, UniProt P36888, D835H)
T16 construct: purchased DiscoverX ScanMAX Kinase analysis panel
Procedure: as §1, §2

EGFR(T790M) = biological target: T17, EGFR(T790M) (Homo sapiens, UniProt P00533, T790M)
T17 construct: purchased DiscoverX ScanMAX Kinase analysis panel
Procedure: as §1, §2

FLT3-autoinhibited = biological target: T18, FLT3-autoinhibited (Homo sapiens, UniProt P36888)
T18 construct: purchased DiscoverX ScanMAX Kinase analysis panel
Procedure: as §1, §2

RIOK3 = biological target: T19, RIOK3 (Homo sapiens, UniProt O14730)
T19 construct: purchased DiscoverX ScanMAX Kinase analysis panel
Procedure: as §1, §2

[5] = biological target: T20, ABL1(H396P)-nonphosphorylated (Homo sapiens, UniProt P00519, H396P)
T20 construct: purchased DiscoverX
Procedure: as §1, §2

KIT(V559D) = biological target: T21, KIT(V559D) (Homo sapiens, UniProt P10721, V559D)
T21 construct: purchased DiscoverX ScanMAX Kinase analysis panel
Procedure: as §1, §2

TRKB = biological target: T22, TRKB (Homo sapiens, UniProt Q16620)
T22 construct: purchased DiscoverX ScanMAX Kinase analysis panel
Procedure: as §1, §2

DLK = biological target: T23, DLK (Homo sapiens, UniProt Q12852)
T23 construct: purchased DiscoverX
Procedure: as §1, §2

LCK = biological target: T24, LCK (Homo sapiens, UniProt P06239)
T24 construct: purchased DiscoverX ScanMAX Kinase analysis panel
Procedure: as §1, §2

SYK = biological target: T25, SYK (Homo sapiens, UniProt P43405)
T25 construct: purchased DiscoverX ScanMAX Kinase analysis panel
Procedure: as §1, §2

TRKA = biological target: T26, TRKA (Homo sapiens, UniProt P04629)
T26 construct: purchased DiscoverX ScanMAX Kinase analysis panel
Procedure: as §1, §2

BTK = biological target: T27, BTK (Homo sapiens, UniProt Q06187)
T27 construct: purchased DiscoverX
Procedure: as §1, §2

AMPK-alpha1 = biological target: T28, AMPK-alpha1 (Homo sapiens, UniProt Q13131)
T28 construct: purchased DiscoverX
Procedure: as §1, §2

[6] = biological target: T29, JAK1(JH1domain-catalytic) (Homo sapiens, UniProt P23458)
T29 construct: JAK1(JH1domain-catalytic); purchased DiscoverX ScanMAX Kinase analysis panel
Procedure: as §1, §2

MEK2 = biological target: T30, MEK2 (Homo sapiens, UniProt P36507)
T30 construct: purchased DiscoverX ScanMAX Kinase analysis panel
Procedure: as §1, §2

AXL = biological target: T31, AXL (Homo sapiens, UniProt P30530)
T31 construct: purchased DiscoverX
Procedure: as §1, §2

[7] = biological target: T32, TYK2(JH1domain-catalytic) (Homo sapiens, UniProt P29597)
T32 construct: TYK2(JH1domain-catalytic); purchased DiscoverX ScanMAX Kinase analysis panel
Procedure: as §1, §2

FLT3(K663Q) = biological target: T33, FLT3(K663Q) (Homo sapiens, UniProt P36888, K663Q)
T33 construct: purchased DiscoverX ScanMAX Kinase analysis panel
Procedure: as §1, §2

T10 sequence (P07949 29-1114): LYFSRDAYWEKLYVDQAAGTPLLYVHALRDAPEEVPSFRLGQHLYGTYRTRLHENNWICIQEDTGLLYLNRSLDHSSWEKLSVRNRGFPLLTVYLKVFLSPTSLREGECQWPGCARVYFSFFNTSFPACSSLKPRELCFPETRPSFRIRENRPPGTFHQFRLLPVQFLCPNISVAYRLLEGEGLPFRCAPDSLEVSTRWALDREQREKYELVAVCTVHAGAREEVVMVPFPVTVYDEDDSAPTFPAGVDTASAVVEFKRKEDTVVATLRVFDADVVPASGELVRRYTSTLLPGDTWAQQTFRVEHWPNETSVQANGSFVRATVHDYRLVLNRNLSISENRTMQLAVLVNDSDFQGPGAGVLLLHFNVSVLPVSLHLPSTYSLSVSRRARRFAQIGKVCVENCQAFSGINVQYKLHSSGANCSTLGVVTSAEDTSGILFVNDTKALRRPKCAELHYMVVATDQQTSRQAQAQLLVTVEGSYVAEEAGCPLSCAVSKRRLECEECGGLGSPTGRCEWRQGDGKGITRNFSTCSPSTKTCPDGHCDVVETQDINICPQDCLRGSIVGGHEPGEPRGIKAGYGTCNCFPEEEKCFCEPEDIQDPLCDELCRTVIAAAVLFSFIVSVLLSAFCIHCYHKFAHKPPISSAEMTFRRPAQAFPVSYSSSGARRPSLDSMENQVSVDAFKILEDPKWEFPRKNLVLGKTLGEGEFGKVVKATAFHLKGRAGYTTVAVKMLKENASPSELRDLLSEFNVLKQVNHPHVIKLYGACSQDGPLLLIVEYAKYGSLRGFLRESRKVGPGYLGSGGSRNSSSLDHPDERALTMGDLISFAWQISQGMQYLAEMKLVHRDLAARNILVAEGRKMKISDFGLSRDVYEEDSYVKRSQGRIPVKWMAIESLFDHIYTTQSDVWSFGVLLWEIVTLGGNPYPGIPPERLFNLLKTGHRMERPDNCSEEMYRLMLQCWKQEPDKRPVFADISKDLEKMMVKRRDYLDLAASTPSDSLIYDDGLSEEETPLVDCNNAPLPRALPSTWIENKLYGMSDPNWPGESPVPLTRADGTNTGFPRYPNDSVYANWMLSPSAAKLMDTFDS
T8 sequence (Q9P2K8 590-1001 S808G limits assumed): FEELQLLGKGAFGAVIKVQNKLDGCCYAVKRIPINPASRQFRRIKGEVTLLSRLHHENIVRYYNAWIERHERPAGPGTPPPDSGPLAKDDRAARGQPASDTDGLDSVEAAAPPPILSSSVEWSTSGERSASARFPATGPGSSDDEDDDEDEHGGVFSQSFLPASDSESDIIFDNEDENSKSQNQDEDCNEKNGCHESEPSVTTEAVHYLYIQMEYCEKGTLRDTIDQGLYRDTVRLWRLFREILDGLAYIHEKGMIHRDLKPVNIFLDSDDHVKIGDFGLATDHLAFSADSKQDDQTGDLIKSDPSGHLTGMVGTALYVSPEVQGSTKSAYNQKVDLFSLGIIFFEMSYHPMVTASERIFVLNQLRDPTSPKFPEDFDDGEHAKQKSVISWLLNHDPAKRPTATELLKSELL
T32 sequence (P29597 897-1176 limits assumed): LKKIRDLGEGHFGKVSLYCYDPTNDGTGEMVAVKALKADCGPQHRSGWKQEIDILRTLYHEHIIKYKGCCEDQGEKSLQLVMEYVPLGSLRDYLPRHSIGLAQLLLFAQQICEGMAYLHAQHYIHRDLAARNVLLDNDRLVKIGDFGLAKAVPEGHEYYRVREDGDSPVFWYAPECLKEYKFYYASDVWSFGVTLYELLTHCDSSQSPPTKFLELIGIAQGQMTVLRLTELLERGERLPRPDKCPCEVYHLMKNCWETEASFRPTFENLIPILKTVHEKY
T6 sequence (Q9Y2U5 whole entry): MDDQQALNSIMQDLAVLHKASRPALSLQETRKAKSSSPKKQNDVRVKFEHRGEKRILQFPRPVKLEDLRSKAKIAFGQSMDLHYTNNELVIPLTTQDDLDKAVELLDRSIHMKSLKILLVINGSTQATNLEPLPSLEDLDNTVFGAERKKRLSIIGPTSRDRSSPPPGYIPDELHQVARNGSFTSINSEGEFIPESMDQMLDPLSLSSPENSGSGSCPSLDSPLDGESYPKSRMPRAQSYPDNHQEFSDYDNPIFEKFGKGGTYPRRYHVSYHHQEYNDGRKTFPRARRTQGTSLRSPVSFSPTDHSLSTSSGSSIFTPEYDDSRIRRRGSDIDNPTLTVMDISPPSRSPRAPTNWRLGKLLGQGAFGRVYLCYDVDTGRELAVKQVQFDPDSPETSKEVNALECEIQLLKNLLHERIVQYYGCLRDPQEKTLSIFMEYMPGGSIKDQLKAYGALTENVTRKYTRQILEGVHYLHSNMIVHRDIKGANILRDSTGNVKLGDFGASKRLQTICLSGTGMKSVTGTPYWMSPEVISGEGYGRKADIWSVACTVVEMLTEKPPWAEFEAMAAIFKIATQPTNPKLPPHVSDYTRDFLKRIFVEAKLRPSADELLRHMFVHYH
T2 sequence (O43293 whole entry): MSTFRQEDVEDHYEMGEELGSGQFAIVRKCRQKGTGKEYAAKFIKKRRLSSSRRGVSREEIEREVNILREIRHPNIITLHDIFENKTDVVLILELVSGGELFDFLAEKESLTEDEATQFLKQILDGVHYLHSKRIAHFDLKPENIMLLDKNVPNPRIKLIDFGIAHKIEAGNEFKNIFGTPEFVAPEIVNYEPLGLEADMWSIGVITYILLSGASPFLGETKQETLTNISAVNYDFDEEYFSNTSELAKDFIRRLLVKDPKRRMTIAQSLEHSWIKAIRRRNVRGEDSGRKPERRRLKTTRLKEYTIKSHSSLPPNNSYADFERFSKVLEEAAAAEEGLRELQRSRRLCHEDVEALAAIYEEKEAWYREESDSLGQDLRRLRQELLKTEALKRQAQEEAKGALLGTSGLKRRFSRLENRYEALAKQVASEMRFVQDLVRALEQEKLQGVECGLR
T4 sequence (P23458 583-855 limits assumed): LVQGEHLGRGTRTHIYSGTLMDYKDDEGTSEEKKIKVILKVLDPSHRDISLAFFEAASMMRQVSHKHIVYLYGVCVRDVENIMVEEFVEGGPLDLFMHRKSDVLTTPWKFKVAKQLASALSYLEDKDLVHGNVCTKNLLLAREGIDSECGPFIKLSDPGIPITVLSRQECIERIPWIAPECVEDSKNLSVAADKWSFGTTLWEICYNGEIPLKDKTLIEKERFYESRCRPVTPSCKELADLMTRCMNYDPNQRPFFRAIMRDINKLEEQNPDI
T24 sequence (P06239 whole entry): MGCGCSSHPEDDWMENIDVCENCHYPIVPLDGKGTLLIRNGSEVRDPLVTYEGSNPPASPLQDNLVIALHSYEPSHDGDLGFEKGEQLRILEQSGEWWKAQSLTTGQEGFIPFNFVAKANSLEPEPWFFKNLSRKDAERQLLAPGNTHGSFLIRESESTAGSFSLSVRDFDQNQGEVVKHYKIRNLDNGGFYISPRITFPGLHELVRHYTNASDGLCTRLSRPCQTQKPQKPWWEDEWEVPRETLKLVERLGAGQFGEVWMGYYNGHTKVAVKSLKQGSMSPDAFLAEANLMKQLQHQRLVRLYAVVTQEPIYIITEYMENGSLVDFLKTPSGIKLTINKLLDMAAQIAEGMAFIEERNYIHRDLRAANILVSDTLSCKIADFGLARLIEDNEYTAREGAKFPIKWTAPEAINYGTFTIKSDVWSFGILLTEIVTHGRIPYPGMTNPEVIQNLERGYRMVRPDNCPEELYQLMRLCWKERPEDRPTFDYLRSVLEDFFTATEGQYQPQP
T11 sequence (P07947 whole entry): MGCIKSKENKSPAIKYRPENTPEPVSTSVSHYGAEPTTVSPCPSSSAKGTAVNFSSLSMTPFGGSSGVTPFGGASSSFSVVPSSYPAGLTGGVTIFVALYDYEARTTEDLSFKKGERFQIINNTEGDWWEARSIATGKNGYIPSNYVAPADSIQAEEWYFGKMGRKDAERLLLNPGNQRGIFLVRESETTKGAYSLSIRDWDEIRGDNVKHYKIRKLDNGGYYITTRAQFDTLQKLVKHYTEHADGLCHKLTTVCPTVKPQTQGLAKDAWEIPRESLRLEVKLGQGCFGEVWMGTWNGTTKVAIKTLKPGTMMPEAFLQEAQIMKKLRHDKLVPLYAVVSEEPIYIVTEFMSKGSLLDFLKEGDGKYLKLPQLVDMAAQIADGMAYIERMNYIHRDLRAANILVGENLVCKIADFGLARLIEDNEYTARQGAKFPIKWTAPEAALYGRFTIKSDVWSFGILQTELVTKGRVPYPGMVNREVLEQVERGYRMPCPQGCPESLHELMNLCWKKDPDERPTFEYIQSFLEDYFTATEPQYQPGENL
T27 sequence (Q06187 whole entry): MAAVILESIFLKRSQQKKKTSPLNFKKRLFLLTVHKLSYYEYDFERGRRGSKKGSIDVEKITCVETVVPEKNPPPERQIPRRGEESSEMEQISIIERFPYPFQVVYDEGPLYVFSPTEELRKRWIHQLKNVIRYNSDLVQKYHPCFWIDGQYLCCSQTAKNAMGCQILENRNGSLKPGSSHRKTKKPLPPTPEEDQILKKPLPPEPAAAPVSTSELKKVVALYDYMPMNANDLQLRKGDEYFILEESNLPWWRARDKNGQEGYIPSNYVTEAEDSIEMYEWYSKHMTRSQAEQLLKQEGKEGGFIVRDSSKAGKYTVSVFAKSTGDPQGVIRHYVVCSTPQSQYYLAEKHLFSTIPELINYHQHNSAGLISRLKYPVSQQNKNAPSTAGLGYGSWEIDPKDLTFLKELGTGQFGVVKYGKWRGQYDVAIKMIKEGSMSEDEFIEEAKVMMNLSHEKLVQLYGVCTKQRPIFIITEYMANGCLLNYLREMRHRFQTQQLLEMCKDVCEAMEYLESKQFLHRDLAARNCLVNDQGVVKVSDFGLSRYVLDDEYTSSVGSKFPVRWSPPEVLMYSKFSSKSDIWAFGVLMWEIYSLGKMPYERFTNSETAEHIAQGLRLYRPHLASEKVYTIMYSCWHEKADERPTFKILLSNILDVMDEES
T9 sequence (P07949 29-1114 V804L): as the sequence (P07949 29-1114) above, with V776L counted along it

Compound | remaining binding at 1 µM [1] [%] | remaining binding at 1 µM (DAPK3) [%] | remaining binding at 1 µM (FLT3(D835V)) [%] | remaining binding at 1 µM [2] [%] | remaining binding at 1 µM (MEK5) [%] | remaining binding at 1 µM (MAP3K2) [%] | remaining binding at 1 µM [3] [%] | remaining binding at 1 µM (GCN2(Kin.Dom.2, S808G)) [%] | remaining binding at 1 µM (RET(V804L)) [%] | remaining binding at 1 µM (RET) [%] | remaining binding at 1 µM (YES) [%] | remaining binding at 1 µM (PLK4) [%] | remaining binding at 1 µM (DDR2) [%] | remaining binding at 1 µM [4] [%] | remaining binding at 1 µM (YSK4) [%] | remaining binding at 1 µM (FLT3(D835H)) [%] | remaining binding at 1 µM (EGFR(T790M)) [%] | remaining binding at 1 µM (FLT3-autoinhibited) [%] | remaining binding at 1 µM (RIOK3) [%] | remaining binding at 1 µM [5] [%] | also measured
COc1ccc(CN2C3CC2CN(c2ccc(-c4nc(Nc5cc(C)[nH]n5)c5occc5n4)cn2)C3)cn1 [Example 1, 2-(6-(6-((6-methoxypyridin-3-yl)methyl)-3,6-diazabicyclo[3.1.1]heptan-3-yl)pyridin-3-yl)-N-(5-methyl-1H-pyrazol-3-yl)furo[3,2-d]pyrimidin-4-amine] | 20 | 19 | 1.3 | 21 | 9.9 | 27 | 0.55 | 8 | 1.1 | 0 | 11 | 1.3 | 16 | 16 | 6.2 | 6.7 | 8.1 | 9.8 | 13 | 10 | remaining binding at 1 µM (KIT(V559D)): 34%; remaining binding at 1 µM (TRKB): 1.6%; remaining binding at 1 µM (DLK): 29%; remaining binding at 1 µM (LCK): 2.5%; remaining binding at 1 µM (SYK): 3.1%; remaining binding at 1 µM (TRKA): 0%; remaining binding at 1 µM (BTK): 17%; remaining binding at 1 µM (AMPK-alpha1): 26%; remaining binding at 1 µM [6]: 15%; remaining binding at 1 µM (MEK2): 24%; remaining binding at 1 µM (AXL): 1.2%; remaining binding at 1 µM [7]: 0.2%; remaining binding at 1 µM (FLT3(K663Q)): 2.2%
COc1ccc(CN2C3CC2CN(c2ccc(-c4nc(Nc5cc(C)[nH]n5)c5ccccc5n4)cn2)C3)cn1 [Example 3, 2-(6-(6-((6-methoxypyridin-3-yl)methyl)-3,6-diazabicyclo [3.1.1]heptan-3-yl)pyridin-3-yl)-N-(5-methyl-1H-pyrazol-3-yl)quinazolin-4-amine] | 2.9 | 34 | 0 | 2.9 | 2.2 | 7.4 | 1.9 | 0.2 | 0.4 | 0 | 3.8 | 1.2 | 30 | 15 | 5 | 2.7 | 16 | 11 | 30 | 2.5 | remaining binding at 1 µM (KIT(V559D)): 4.2%; remaining binding at 1 µM (TRKB): 2.1%; remaining binding at 1 µM (DLK): 19%; remaining binding at 1 µM (LCK): 1.8%; remaining binding at 1 µM (SYK): 2.2%; remaining binding at 1 µM (TRKA): 0%; remaining binding at 1 µM (BTK): 16%; remaining binding at 1 µM (AMPK-alpha1): 33%; remaining binding at 1 µM [6]: 9.7%; remaining binding at 1 µM (MEK2): 17%; remaining binding at 1 µM (AXL): 0%; remaining binding at 1 µM [7]: 5.3%; remaining binding at 1 µM (FLT3(K663Q)): 0.1%
